PMC9481570, “A small molecule antagonist of SMN disrupts the interaction between SMN and RNAP II” (Nature Communications, 2022)
Values joined by “and” are separate entries in the source; they are usually repeats but may differ in a detail not shown here. Identical values can stand only once.

Tests used:
Assay in all cases: Affinity-purification and mass spectrometry (AP-MS) chemical proteomics, all proteins;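 as to Difference: 200 µM free competitor with 20 µM biotin probe overnight in lysate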
Type in all cases: binding
[1] = target: T1, proteins displaced from immobilized biotin-Cmpd 1 pulldowns (U2OS cell lysate) (Homo sapiens, UniProt P10599); conditions: GN=TXN (P10599)
T1 construct: endogenous in cells; host or cells: U2OS

[2] = target: T2, proteins displaced from immobilized biotin-Cmpd 1 pulldowns (U2OS cell lysate) (Homo sapiens, UniProt Q5T749); conditions: GN=KPRP (Q5T749)
T2 construct: endogenous in cells; host or cells: U2OS

[3] = target: T3, proteins displaced from immobilized biotin-Cmpd 1 pulldowns (U2OS cell lysate) (Homo sapiens, UniProt Q9NUQ6); conditions: GN=SPATS2L (Q9NUQ6)
T3 construct: endogenous in cells; host or cells: U2OS

[4] = target: T4, proteins displaced from immobilized biotin-Cmpd 1 pulldowns (U2OS cell lysate) (Homo sapiens, UniProt P07339); conditions: GN=CTSD (P07339)
T4 construct: endogenous in cells; host or cells: U2OS

[5] = target: T5, proteins displaced from immobilized biotin-Cmpd 1 pulldowns (U2OS cell lysate) (Homo sapiens, UniProt P52948); conditions: GN=NUP98 (P52948)
T5 construct: endogenous in cells; host or cells: U2OS

[6] = target: T6, proteins displaced from immobilized biotin-Cmpd 1 pulldowns (U2OS cell lysate) (Homo sapiens, UniProt P42357); conditions: GN=HAL (P42357)
T6 construct: endogenous in cells; host or cells: U2OS

[7] = target: T7, proteins displaced from immobilized biotin-Cmpd 1 pulldowns (U2OS cell lysate) (Homo sapiens, UniProt O75683); conditions: GN=SURF6 (O75683)
T7 construct: endogenous in cells; host or cells: U2OS

[8] = target: T8, proteins displaced from immobilized biotin-Cmpd 1 pulldowns (U2OS cell lysate) (Homo sapiens, UniProt O94925); conditions: GN=GLS (O94925)
T8 construct: endogenous in cells; host or cells: U2OS

[9] = target: T9, proteins displaced from immobilized biotin-Cmpd 1 pulldowns (U2OS cell lysate) (Homo sapiens, UniProt P57678); conditions: GN=GEMIN4 (P57678)
T9 construct: endogenous in cells; host or cells: U2OS

[10] = target: T10, proteins displaced from immobilized biotin-Cmpd 1 pulldowns (U2OS cell lysate) (Homo sapiens, UniProt P27797); conditions: GN=CALR (P27797)
T10 construct: endogenous in cells; host or cells: U2OS

T4 sequence (P07339 65-412): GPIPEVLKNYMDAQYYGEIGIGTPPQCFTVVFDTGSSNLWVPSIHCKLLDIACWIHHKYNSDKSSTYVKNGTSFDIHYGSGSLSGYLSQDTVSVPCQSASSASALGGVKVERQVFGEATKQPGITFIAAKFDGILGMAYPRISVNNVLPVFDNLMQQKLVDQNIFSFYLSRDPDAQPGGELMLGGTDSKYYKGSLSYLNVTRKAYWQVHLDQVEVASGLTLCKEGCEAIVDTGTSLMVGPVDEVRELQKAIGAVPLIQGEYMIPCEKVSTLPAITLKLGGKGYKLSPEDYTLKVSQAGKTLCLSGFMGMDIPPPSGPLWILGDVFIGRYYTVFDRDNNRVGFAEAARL
T2 sequence (Q5T749 whole entry): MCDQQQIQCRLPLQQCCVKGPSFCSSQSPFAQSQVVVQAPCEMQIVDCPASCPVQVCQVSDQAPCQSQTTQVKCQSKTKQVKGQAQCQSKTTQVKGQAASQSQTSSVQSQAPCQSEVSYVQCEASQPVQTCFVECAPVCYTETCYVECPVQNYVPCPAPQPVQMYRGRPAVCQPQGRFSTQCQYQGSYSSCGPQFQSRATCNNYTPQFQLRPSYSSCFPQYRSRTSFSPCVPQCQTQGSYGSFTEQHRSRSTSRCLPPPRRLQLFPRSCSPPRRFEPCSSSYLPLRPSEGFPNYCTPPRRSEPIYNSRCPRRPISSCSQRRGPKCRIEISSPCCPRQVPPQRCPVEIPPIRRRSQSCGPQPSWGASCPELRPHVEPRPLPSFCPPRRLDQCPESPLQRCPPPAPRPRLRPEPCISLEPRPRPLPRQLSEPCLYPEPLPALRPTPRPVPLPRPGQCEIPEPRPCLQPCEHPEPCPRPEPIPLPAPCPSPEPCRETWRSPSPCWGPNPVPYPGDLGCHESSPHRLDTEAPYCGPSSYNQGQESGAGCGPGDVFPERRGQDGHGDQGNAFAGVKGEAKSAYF
T7 sequence (O75683 whole entry): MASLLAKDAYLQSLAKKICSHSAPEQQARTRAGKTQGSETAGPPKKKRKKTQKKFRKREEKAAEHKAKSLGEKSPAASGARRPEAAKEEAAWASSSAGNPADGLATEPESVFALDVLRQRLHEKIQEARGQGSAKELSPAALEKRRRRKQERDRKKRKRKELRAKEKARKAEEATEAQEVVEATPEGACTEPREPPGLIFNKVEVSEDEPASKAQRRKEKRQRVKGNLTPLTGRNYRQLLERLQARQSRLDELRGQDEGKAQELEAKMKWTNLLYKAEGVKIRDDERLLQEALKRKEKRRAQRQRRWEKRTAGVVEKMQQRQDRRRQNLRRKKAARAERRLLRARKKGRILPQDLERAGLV
T9 sequence (P57678 whole entry): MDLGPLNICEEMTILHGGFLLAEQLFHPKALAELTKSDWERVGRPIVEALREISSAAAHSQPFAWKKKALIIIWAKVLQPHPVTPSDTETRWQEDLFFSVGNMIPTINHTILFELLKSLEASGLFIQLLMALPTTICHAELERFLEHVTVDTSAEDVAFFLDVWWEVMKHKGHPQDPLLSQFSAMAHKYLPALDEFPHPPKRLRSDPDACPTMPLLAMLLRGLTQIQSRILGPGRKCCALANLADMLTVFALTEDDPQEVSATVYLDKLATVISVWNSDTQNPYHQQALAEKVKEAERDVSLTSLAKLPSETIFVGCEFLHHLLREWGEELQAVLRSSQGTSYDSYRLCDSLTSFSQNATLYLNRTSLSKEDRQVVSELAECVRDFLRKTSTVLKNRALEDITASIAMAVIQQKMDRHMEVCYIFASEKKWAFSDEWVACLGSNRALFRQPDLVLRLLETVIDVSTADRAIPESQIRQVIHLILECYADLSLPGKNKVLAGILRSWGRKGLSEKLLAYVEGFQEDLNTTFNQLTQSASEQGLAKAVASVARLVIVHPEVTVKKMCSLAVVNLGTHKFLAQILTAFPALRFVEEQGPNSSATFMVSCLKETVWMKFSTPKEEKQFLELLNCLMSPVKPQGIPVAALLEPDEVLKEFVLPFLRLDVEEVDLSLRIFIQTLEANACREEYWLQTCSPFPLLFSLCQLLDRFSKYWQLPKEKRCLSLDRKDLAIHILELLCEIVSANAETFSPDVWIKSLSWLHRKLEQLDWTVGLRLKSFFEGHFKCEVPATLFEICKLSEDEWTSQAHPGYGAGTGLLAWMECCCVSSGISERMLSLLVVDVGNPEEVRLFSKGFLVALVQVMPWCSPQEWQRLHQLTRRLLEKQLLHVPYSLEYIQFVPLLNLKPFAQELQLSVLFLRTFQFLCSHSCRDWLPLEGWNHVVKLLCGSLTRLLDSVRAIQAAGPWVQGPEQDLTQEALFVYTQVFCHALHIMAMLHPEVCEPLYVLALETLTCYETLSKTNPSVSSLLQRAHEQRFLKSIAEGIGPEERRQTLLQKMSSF
T5 sequence (P52948 whole entry): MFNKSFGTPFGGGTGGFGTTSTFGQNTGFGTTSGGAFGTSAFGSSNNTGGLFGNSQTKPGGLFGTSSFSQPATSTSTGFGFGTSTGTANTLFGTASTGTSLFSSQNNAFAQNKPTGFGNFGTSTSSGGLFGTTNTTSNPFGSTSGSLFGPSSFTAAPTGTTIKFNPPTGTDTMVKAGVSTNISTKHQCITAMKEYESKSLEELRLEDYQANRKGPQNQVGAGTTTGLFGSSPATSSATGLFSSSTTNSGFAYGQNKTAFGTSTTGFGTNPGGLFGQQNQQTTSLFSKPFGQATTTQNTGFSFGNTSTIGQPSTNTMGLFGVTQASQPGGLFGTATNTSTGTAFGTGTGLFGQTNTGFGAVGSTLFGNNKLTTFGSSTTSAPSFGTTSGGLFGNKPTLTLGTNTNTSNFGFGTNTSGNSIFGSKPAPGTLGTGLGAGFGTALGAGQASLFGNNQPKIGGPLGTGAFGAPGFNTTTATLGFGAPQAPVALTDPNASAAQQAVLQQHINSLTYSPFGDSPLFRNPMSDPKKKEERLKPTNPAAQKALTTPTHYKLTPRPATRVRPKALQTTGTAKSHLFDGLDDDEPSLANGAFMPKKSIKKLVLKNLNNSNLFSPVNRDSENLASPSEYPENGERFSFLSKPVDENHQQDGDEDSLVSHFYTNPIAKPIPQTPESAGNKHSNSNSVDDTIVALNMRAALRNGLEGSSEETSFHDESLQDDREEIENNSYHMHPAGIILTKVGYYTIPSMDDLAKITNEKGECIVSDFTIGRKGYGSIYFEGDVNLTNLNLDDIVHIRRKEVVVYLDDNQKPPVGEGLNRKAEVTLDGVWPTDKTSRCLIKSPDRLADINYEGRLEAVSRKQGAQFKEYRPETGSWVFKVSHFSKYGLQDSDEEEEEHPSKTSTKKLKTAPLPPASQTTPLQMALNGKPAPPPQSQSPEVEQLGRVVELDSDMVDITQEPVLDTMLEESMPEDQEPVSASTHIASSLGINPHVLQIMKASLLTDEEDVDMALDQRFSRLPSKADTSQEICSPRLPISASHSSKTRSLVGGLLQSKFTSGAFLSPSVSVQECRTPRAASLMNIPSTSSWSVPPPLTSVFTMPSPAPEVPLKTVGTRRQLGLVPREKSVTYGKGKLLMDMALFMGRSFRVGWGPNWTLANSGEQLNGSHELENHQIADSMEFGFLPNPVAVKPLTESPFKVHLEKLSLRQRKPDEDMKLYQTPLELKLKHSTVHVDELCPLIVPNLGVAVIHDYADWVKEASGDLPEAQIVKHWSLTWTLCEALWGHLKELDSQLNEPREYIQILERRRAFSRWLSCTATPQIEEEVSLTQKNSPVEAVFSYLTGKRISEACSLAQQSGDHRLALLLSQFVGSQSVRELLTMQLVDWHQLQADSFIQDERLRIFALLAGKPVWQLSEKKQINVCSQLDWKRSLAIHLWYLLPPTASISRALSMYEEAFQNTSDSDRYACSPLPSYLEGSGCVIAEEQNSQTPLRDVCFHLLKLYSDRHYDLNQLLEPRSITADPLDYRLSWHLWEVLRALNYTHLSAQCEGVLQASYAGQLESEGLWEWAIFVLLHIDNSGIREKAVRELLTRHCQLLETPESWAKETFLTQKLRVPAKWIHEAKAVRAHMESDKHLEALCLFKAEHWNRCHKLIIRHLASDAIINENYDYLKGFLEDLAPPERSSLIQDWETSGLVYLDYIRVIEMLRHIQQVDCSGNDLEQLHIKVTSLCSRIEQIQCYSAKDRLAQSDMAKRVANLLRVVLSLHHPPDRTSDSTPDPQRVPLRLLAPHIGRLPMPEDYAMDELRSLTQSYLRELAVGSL
T6 sequence (P42357 whole entry): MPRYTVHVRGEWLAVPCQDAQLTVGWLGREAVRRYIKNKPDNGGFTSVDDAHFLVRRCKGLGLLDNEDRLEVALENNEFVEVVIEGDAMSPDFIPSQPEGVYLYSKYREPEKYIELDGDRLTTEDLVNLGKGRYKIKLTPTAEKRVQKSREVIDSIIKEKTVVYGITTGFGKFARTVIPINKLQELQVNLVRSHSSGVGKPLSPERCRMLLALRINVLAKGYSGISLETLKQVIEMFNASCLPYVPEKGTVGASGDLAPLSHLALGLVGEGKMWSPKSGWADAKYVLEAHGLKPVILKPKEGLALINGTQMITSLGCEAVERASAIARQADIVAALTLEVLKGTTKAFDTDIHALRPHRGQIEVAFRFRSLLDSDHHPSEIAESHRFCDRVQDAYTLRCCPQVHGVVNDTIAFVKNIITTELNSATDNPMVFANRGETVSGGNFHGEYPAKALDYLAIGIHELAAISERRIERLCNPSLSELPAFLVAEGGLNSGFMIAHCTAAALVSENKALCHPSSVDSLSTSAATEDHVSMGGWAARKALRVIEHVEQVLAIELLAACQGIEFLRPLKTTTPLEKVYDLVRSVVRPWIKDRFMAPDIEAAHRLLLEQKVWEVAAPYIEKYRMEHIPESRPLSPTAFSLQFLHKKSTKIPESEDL
T1 sequence (P10599 whole entry): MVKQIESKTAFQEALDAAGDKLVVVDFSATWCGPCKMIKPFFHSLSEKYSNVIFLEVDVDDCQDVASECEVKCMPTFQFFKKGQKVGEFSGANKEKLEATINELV

Cn1c2c(c(=N)c3c1CCC3)CCC2 [Compound 1, 4-methyl-2,3,4,5,6,7-hexahydrodicyclopenta[b,e]pyridin-8(1H)-imine]
Difference ([1]; Cmpd minus DMSO, -LOG(P-value) 1.02279): -1.031 | iBAQ Cmpd ([1]; replicates 1-3): 20.7578 and 20.8108 and 19.926 | Difference ([2]; Cmpd minus DMSO, -LOG(P-value) 1.8417): -3.732 | iBAQ Cmpd ([2]; replicates 1-3): 15.9159 and 16.7213 and 14.3127 | Difference ([3]; Cmpd minus DMSO, -LOG(P-value) 0.875271): 3.1666 | iBAQ Cmpd ([3]; replicates 1-3): 21.4367 and 18.8839 and 18.3449 | Difference ([4]; Cmpd minus DMSO, -LOG(P-value) 0.933319): -3.118 | iBAQ Cmpd ([4]; replicates 1-3): 18.4576 and 18.593 and 15.0798 | Difference ([5]; Cmpd minus DMSO, -LOG(P-value) 0.703266): 1.019 | iBAQ Cmpd ([5]; replicates 1-3): 16.2576 and 15.2783 and 15.0872 | Difference ([6]; Cmpd minus DMSO, -LOG(P-value) 1.13561): -1.443 | iBAQ Cmpd ([6]; replicates 1-3): 15.8179 and 16.0542 and 14.8398 | Difference ([7]; Cmpd minus DMSO, -LOG(P-value) 1.38004): 2.68 | iBAQ Cmpd ([7]; replicates 1-3): 19.6513 and 20.3325 and 21.9506 | Difference ([8]; Cmpd minus DMSO, -LOG(P-value) 0.714958): 1.117 | iBAQ Cmpd ([8]; replicates 1-3): 18.1344 and 18.3969 and 16.5727 | Difference ([9]; Cmpd minus DMSO, -LOG(P-value) 1.57311): -2.921 | iBAQ Cmpd ([9]; replicates 1-3): 14.9119 and 15.2101 and 14.5309 | Difference ([10]; Cmpd minus DMSO, -LOG(P-value) 1.31392): 3.089 | iBAQ Cmpd ([10]; replicates 1-3): 19.5486 and 19.2952 and 16.8093
